Columns and labels:
[1] = test system: bicistronic HCV replicon (replicon RNA, GenBank Accession No. AJ242654); test: HCV Replicon Assay; assay type: cell-based; conditions: Hepatitis C virus, 72 h, read-out: Replicon IC50

Row | SMILES | melting point [°C] | IC50 [1] [nM]
1 | Cc1cc2c(cc1F)c(C#N)c(-c1ccc(S(=O)(=O)N[C@@H](C)C(F)(F)F)cn1)n2-c1ncc(CO)s1 [compound 984, 6-{3-cyano-5-fluoro-1-[5-(hydroxymethyl)-1,3-thiazol-2-yl]-6-methyl-1H-indol-2-yl}-N-[(2S)-1,1,1-trifluoropropan-2-yl]pyridine-3-sulfonamide] | 180 to 185 | < 500
2 | Cc1ccc2c(c1)c(C#N)c(-c1ncc(S(=O)(=O)NC(CF)CF)cn1)n2CC1CC1 [compound 524, 2-[3-cyano-1-(cyclopropylmethyl)-5-methyl-1H-indol-2-yl]-N-(1,3-difluoropropan-2-yl)pyrimidine-5-sulfonamide] | 151 to 155 | < 500
3 | N#Cc1c(-c2ncc(S(=O)(=O)NC(CF)CF)cn2)n(C2CCCCC2)c2cc(F)ccc12 [compound 235, 2-(3-cyano-1-cyclohexyl-6-fluoro-1H-indol-2-yl)-N-(1,3-difluoropropan-2-yl)pyrimidine-5-sulfonamide] | 213 to 218 | < 500
4 | CCc1cc2c(cc1F)c(C#N)c(-c1ccc(S(=O)(=O)N[C@@H](C)C(F)(F)F)cn1)n2-c1cncc(Cl)c1 [compound 983, 6-[1-(5-chloropyridin-3-yl)-3-cyano-6-ethyl-5-fluoro-1H-indol-2-yl]-N-[(2S)-1,1,1-trifluoropropan-2-yl]pyridine-3-sulfonamide] | 107 to 109 | < 500
5 | CCc1cc2c(cc1F)c(C#N)c(-c1ccc(S(=O)(=O)N[C@@H](C)C(F)(F)F)cn1)n2-c1ncccc1Cl [compound 965, 6-[1-(3-chloropyridin-2-yl)-3-cyano-6-ethyl-5-fluoro-1H-indol-2-yl]-N-[(2S)-1,1,1-trifluoropropan-2-yl]pyridine-3-sulfonamide] | 200 to 208 | < 500
6 | Cc1cc2c(cc1F)c(C#N)c(-c1ccc(S(=O)(=O)N[C@@H](C)C(F)(F)F)cn1)n2-c1cncs1 [compound 973, 6-[3-cyano-5-fluoro-6-methyl-1-(1,3-thiazol-5-yl)-1H-indol-2-yl]-N-[(2S)-1,1,1-trifluoropropan-2-yl]pyridine-3-sulfonamide] | 234 to 238 | < 500
7 | C[C@H](NS(=O)(=O)c1cnc(-c2c(C#N)c3ccc(C4CC4)cc3n2C2CCCC2)nc1)C1CC1 [compound 254, 2-(3-cyano-1-cyclopentyl-6-cyclopropyl-1H-indol-2-yl)-N-[(1S)-1-cyclopropylethyl]pyrimidine-5-sulfonamide] | 185 to 189 | 500 to 2000
8 | CCS(=O)(=O)Nc1ccc(-c2c(C#N)c3ccc(OC(C)C)cc3n2CC2CC2)nc1 [compound 279, N-{6-[3-cyano-1-(cyclopropylmethyl)-6-(propan-2-yloxy)-1H-indol-2-yl]pyridin-3-yl}ethanesulfonamide] | 149 to 154 | 500 to 2000
9 | Cc1cc2c(cc1F)c(C#N)c(-c1ccc(S(=O)(=O)N[C@@H](C)C(F)(F)F)cn1)n2-c1cnn(C)c1 [compound 1016, 6-[3-cyano-5-fluoro-6-methyl-1-(1-methyl-1H-pyrazol-4-yl)-1H-indol-2-yl]-N-[(2S)-1,1,1-trifluoropropan-2-yl]pyridine-3-sulfonamide] | 233.7 to 239.3 | < 500
10 | CCc1cc2c(cc1F)c(C(N)=O)c(-c1ccc(S(=O)(=O)NC(C)(C)C(F)(F)F)cn1)n2-c1ncccn1 [compound 978, 6-ethyl-5-fluoro-1-(pyrimidin-2-yl)-2-{5-[(1,1,1-trifluoro-2-methylpropan-2-yl)sulfamoyl]pyridin-2-yl}-1H-indole-3-carboxamide] | 261 to 269 | 2000 to 5000
11 | CCS(=O)(=O)Nc1ccc(-c2c(C#N)c3ccc(OC(C)C)cc3n2C2CCC2)nn1 [compound 276, N-{6-[3-cyano-1-cyclobutyl-6-(propan-2-yloxy)-1H-indol-2-yl]pyridazin-3-yl}ethanesulfonamide] | 181 to 183 | 2000 to 5000
12 | CCS(=O)(=O)Nc1ccc(-c2c(C#N)c3ccc(OC)cc3n2C2CCC2)nn1 [compound 277, N-[6-(3-cyano-1-cyclobutyl-6-methoxy-1H-indol-2-yl)pyridazin-3-yl]ethanesulfonamide] | 212 to 214 | < 500
13 | Cc1cc2c(C#N)c(-c3ccc(S(=O)(=O)N[C@@H](C)C(F)(F)F)cn3)n(-c3cnccn3)c2cc1F [compound 919, 6-[3-cyano-6-fluoro-5-methyl-1-(pyrazin-2-yl)-1H-indol-2-yl]-N-[(2S)-1,1,1-trifluoropropan-2-yl]pyridine-3-sulfonamide] | 233 to 238 | < 500
14 | N#Cc1c(-c2ncc(S(=O)(=O)NC(CF)CF)cn2)n(C2CCCCC2)c2cc(Cl)ccc12 [compound 517, 2-(6-chloro-3-cyano-1-cyclohexyl-1H-indol-2-yl)-N-(1,3-difluoropropan-2-yl)pyrimidine-5-sulfonamide] | 228 to 234 | < 500
15 | Cc1ccc2c(C#N)c(-c3ncc(S(=O)(=O)N[C@@H](C)C(F)(F)F)cn3)n(CC3CC3)c2c1 [compound 402, 2-[3-cyano-1-(cyclopropylmethyl)-6-methyl-1H-indol-2-yl]-N-[(2S)-1,1,1-trifluoropropan-2-yl]pyrimidine-5-sulfonamide] | 259 to 260 | < 500
16 | CCc1cc2c(cc1F)c(C#N)c(-c1ccc(S(=O)(=O)N[C@H](C)C(F)(F)F)cn1)n2-c1ccc(F)cn1 [compound 880, 6-[3-cyano-6-ethyl-5-fluoro-1-(5-fluoropyridin-2-yl)-1H-indol-2-yl]-N-[(2R)-1,1,1-trifluoropropan-2-yl]pyridine-3-sulfonamide] | 209 to 216 | < 500
17 | C[C@H](NS(=O)(=O)c1cnc(-c2c(C#N)c3cc(Cl)ccc3n2C2CCCCC2)nc1)C(F)(F)F [compound 464, 2-(5-chloro-3-cyano-1-cyclohexyl-1H-indol-2-yl)-N-[(2S)-1,1,1-trifluoropropan-2-yl]pyrimidine-5-sulfonamide] | 253 to 255 | 500 to 2000
18 | Cc1ccc2c(C#N)c(-c3ccc(S(=O)(=O)N[C@@H](C)C(F)(F)F)cn3)n(C3CCCCC3)c2c1 [compound 354, 6-(3-cyano-1-cyclohexyl-6-methyl-1H-indol-2-yl)-N-[(2S)-1,1,1-trifluoropropan-2-yl]pyridine-3-sulfonamide] | 207 to 212 | < 500
19 | Cc1ccnc(-n2c(-c3ccc(S(=O)(=O)N[C@@H](C)C(F)(F)F)cn3)c(C#N)c3cc(F)c(C)cc32)c1 [compound 886, 6-[3-cyano-5-fluoro-6-methyl-1-(4-methylpyridin-2-yl)-1H-indol-2-yl]-N-[(2S)-1,1,1-trifluoropropan-2-yl]pyridine-3-sulfonamide] | 200 to 204 | < 500
20 | CC(=O)c1cc2c(cc1F)c(C#N)c(-c1ccc(S(=O)(=O)N[C@@H](C)C(F)(F)F)cn1)n2-c1ncccn1 [compound 907, 6-[6-acetyl-3-cyano-5-fluoro-1-(pyrimidin-2-yl)-1H-indol-2-yl]-N-[(2S)-1,1,1-trifluoropropan-2-yl]pyridine-3-sulfonamide] | 220 to 221 | < 500
21 | Cc1cc2c(cc1F)c(C#N)c(-c1ccc(S(=O)(=O)N[C@@H](C)C(F)(F)F)cn1)n2C1CCC1 [compound 340, 6-(3-cyano-1-cyclobutyl-5-fluoro-6-methyl-1H-indol-2-yl)-N-[(2S)-1,1,1-trifluoropropan-2-yl]pyridine-3-sulfonamide] | 218 to 219 | < 500
22 | Cc1cc(F)c2c(C#N)c(-c3ccc(S(=O)(=O)NC(C)(C)C(F)(F)F)cn3)n(C3CCCC3)c2c1 [compound 626, 6-(3-cyano-1-cyclopentyl-4-fluoro-6-methyl-1H-indol-2-yl)-N-(1,1,1-trifluoro-2-methylpropan-2-yl)pyridine-3-sulfonamide] | 218 to 223 | < 500
23 | Cc1cc2c(cc1F)c(C#N)c(-c1ccc(S(=O)(=O)NC(C)(C)C(F)(F)F)cn1)n2C1CCC1 [compound 539, 6-(3-cyano-1-cyclobutyl-5-fluoro-6-methyl-1H-indol-2-yl)-N-(1,1,1-trifluoro-2-methylpropan-2-yl)pyridine-3-sulfonamide] | 238 to 243 | < 500
24 | Cc1ccc2c(c1)c(C#N)c(-c1ccc(S(=O)(=O)N[C@@H](C)C(F)(F)F)cn1)n2-c1ncccc1F [compound 844, 6-[3-cyano-1-(3-fluoropyridin-2-yl)-5-methyl-1H-indol-2-yl]-N-[(2S)-1,1,1-trifluoropropan-2-yl]pyridine-3-sulfonamide] | 216 to 220 | < 500
25 | C[C@@H](NS(=O)(=O)c1ccc(-c2c(C#N)c3cc(F)ccc3n2C2C=CCCC2)nc1)C(F)(F)F (stereo partly drawn) [compound 412, 6-[3-cyano-1-(cyclohex-2-en-1-yl)-5-fluoro-1H-indol-2-yl]-N-[(2R)-1,1,1-trifluoropropan-2-yl]pyridine-3-sulfonamide] | 187 to 188 | < 500
26 | Cc1ccc2c(C#N)c(-c3ncc(S(=O)(=O)NC(CF)CF)cn3)n(C3CCCC3)c2c1F [compound 586, 2-(3-cyano-1-cyclopentyl-7-fluoro-6-methyl-1H-indol-2-yl)-N-(1,3-difluoropropan-2-yl)pyrimidine-5-sulfonamide] | 226 to 232 | < 500
27 | CCc1cc2c(cc1F)c(C#N)c(-c1cc(C)c(S(=O)(=O)N[C@@H](C)C(F)(F)F)cn1)n2-c1ncccn1 [compound 851, 6-[3-cyano-6-ethyl-5-fluoro-1-(pyrimidin-2-yl)-1H-indol-2-yl]-4-methyl-N-[(2S)-1,1,1-trifluoropropan-2-yl]pyridine-3-sulfonamide] | 231 to 236 | < 500
28 | C[C@H](NS(=O)(=O)c1ccc(-c2c(C#N)c3cc(Cl)ccc3n2C2CCCCC2)nc1)C(F)(F)F [compound 462, 6-(5-chloro-3-cyano-1-cyclohexyl-1H-indol-2-yl)-N-[(2S)-1,1,1-trifluoropropan-2-yl]pyridine-3-sulfonamide] | 220 to 222 | < 500
